In brackets after ≈: the same amount, converted by molar mass.
How the values were obtained:
M. suipneumoniae NB12 = test: MIC against mycoplasma in vitro; assay type: cell-based; conditions: Mesomycoplasma hyopneumoniae, 144 h; M. suipneumoniae NB12; Friis broth, 0.9% agarose, 6 days, 37° C.; read-out: MIC
M. suipneumoniae HK(2) = test: MIC against mycoplasma in vitro; assay type: cell-based; conditions: Mesomycoplasma hyopneumoniae, 144 h; M. suipneumoniae HK(2); 6 days, 37° C.; read-out: MIC
[1] = tested on: M. suipneumoniae J2206/183^b; test: MIC against mycoplasma in vitro; assay type: cell-based; conditions: Mesomycoplasma hyopneumoniae, 144 h; M. suipneumoniae J2206/183^b; 6 days, 37° C.; read-out: MIC
M. suipneumoniae MS 16 = test: MIC against mycoplasma in vitro; assay type: cell-based; conditions: Mesomycoplasma hyopneumoniae, MS16, 144 h; M. suipneumoniae MS 16; 6 days, 37° C.; read-out: MIC
M. suipneumoniae LABER = test: MIC against mycoplasma in vitro; assay type: cell-based; conditions: Mesomycoplasma hyopneumoniae, 144 h; M. suipneumoniae LABER; 6 days, 37° C.; read-out: MIC
M. suipneumoniae UCD 1 = test: MIC against mycoplasma in vitro; assay type: cell-based; conditions: Mesomycoplasma hyopneumoniae, UCD1, 144 h; M. suipneumoniae UCD 1; 6 days, 37° C.; read-out: MIC
M. suipneumoniae TAM 6N = test: MIC against mycoplasma in vitro; assay type: cell-based; conditions: Mesomycoplasma hyopneumoniae, TAM6N, 144 h; M. suipneumoniae TAM 6N; 6 days, 37° C.; read-out: MIC
[2] = tested on: M. suipneumoniae ATCC 25095; test: MIC against mycoplasma in vitro; assay type: cell-based; conditions: Mesomycoplasma hyopneumoniae, ATCC25095, 144 h; M. suipneumoniae ATCC 25095; 6 days, 37° C.; read-out: MIC
M. hyorhinis ATCC 23234 = test: MIC against mycoplasma in vitro; assay type: cell-based; conditions: Mesomycoplasma hyorhinis, ATCC23234, 144 h; M. hyorhinis ATCC 23234; 6 days, 37° C.; read-out: MIC
M. hyorhinis ATCC 25021 = test: MIC against mycoplasma in vitro; assay type: cell-based; conditions: Mesomycoplasma hyorhinis, ATCC25021, 144 h; M. hyorhinis ATCC 25021; 6 days, 37° C.; read-out: MIC
[3] = tested on: M. hyosynoviae ATCC 25591; test: MIC against mycoplasma in vitro; assay type: cell-based; conditions: 144 h; M. hyosynoviae ATCC 25591; 6 days, 37° C.; read-out: MIC
M. bovis NCTC 10131 = test: microbe, parasite or virus in culture; assay type: cell-based; conditions: NCTC10131, 144 h
[4] = tested on: M. bovigenitalium ATCC 14173; test: MIC against mycoplasma in vitro; assay type: cell-based; conditions: 144 h; M. bovigenitalium ATCC 14173; 6 days, 37° C.; read-out: MIC
P. mirabilis 889 = test: MIC against human bacteria in vitro; assay type: cell-based; conditions: Proteus mirabilis, 889, 18 h
K. aerogenes A = test: MIC against human bacteria in vitro; assay type: cell-based; conditions: Klebsiella aerogenes; K. aerogenes A; 5% chocolated horse blood agar, 18 hours; read-out: MIC
[5] = tested on: Ps. aeruginosa NCTC 10662; test: MIC against human bacteria in vitro; assay type: cell-based; conditions: Pseudomonas aeruginosa, NCTC10662; Ps. aeruginosa NCTC 10662; 5% chocolated horse blood agar, 18 hours; read-out: MIC
[6] = tested on: Haemophilus influenzae Wy21; test: MIC against human bacteria in vitro; assay type: cell-based; conditions: Haemophilus influenzae Wy21; 5% chocolated horse blood agar, 18 hours; read-out: MIC
[7] = tested on: Neisseria catarrhalis 1502; test: MIC against human bacteria in vitro; assay type: cell-based; conditions: Neisseria catarrhalis 1502; 5% chocolated horse blood agar, 18 hours; read-out: MIC
[8] = tested on: Corynebacterium xerosis 9755; test: MIC against human bacteria in vitro; assay type: cell-based; conditions: Corynebacterium xerosis 9755; 5% chocolated horse blood agar, 18 hours; read-out: MIC
Sarcina lutea 8340 = test: MIC against human bacteria in vitro; assay type: cell-based; conditions: Micrococcus luteus; Sarcina lutea 8340; 5% chocolated horse blood agar, 18 hours; read-out: MIC
Staph. aureus Russell = test: MIC against human bacteria in vitro; assay type: cell-based; conditions: Staphylococcus aureus; Staph. aureus Russell; 5% chocolated horse blood agar, 18 hours; read-out: MIC
Staph. aureus W2827 = test: MIC against human bacteria in vitro; assay type: cell-based; conditions: Staphylococcus aureus; Staph. aureus W2827; 5% chocolated horse blood agar, 18 hours; read-out: MIC
Strep. faecalis I = test: MIC against human bacteria in vitro; assay type: cell-based; conditions: Enterococcus faecalis; Strep. faecalis I; 5% chocolated horse blood agar, 18 hours; read-out: MIC
Strep. agalactiae 2788-B = test: MIC against human bacteria in vitro; assay type: cell-based; conditions: Streptococcus agalactiae; Strep. agalactiae 2788-B; 5% chocolated horse blood agar, 18 hours; read-out: MIC
Strep. pneumoniae CN33 = test: MIC against human bacteria in vitro; assay type: cell-based; conditions: Streptococcus pneumoniae, CN33, 18 h
Bord. bronchiseptica B08 = test: MIC against veterinary bacteria in vitro; conditions: Bordetella bronchiseptica, B08, 18 h
Protocol: (§1) The activity of the compounds of the Examples against various veterinarily important bacteria, was assayed in vitro using two-fold serial dilutions in Diagnostic Sensitivity Test Agar inoculated with 10^4 organisms.

Bord. bronchiseptica B09 = test: MIC against veterinary bacteria in vitro; conditions: Bordetella bronchiseptica, B09, 18 h
Protocol: as §1

Past. multocida PA1 = test: MIC against veterinary bacteria in vitro; conditions: Pasteurella multocida, PA1, 18 h
Protocol: as §1

Past. multocida PA2 = test: MIC against veterinary bacteria in vitro; conditions: Pasteurella multocida, PA2, 18 h
Protocol: as §1

Past. haemolytica PA5 = test: MIC against veterinary bacteria in vitro; conditions: Mannheimia haemolytica, PA5, 18 h
Protocol: as §1

[9] = tested on: Erysipelothrix rhusiopathiae NCTC 8163; test: MIC against veterinary bacteria in vitro; conditions: Erysipelothrix rhusiopathiae, NCTC8163, 18 h
Protocol: as §1

[10] = tested on: Corynebacterium pyogenes CY1; test: MIC against veterinary bacteria in vitro; conditions: CY1, 18 h
Protocol: as §1

[11] = tested on: Staph. aureus B4 (pen. resistant); test: MIC against veterinary bacteria in vitro; conditions: Staphylococcus aureus, 18 h
Protocol: as §1

[12] = tested on: Strep. suis (group D) SPS11; test: MIC against veterinary bacteria in vitro; conditions: Streptococcus suis, 18 h
Protocol: as §1

Strep. dysgalactiae SPD1 = test: MIC against veterinary bacteria in vitro; conditions: Streptococcus dysgalactiae, SPD1, 18 h
Protocol: as §1

| SMILES | MIC (M. suipneumoniae NB12) [µg/mL] | MIC (M. suipneumoniae HK(2)) [µg/mL] | MIC [1] [µg/mL] | MIC (M. suipneumoniae MS 16) [µg/mL] | MIC (M. suipneumoniae LABER) [µg/mL] | MIC (M. suipneumoniae UCD 1) [µg/mL] | MIC (M. suipneumoniae TAM 6N) [µg/mL] | MIC [2] [µg/mL] | MIC (M. hyorhinis ATCC 23234) [µg/mL] | MIC (M. hyorhinis ATCC 25021) [µg/mL] | MIC [3] [µg/mL] | MIC (M. bovis NCTC 10131) [µg/mL] | MIC [4] [µg/mL] | MIC (P. mirabilis 889) [µg/mL] | MIC (K. aerogenes A) [µg/mL] | MIC [5] [µg/mL] | MIC [6] [µg/mL] | MIC [7] [µg/mL] | MIC [8] [µg/mL] | MIC (Sarcina lutea 8340) [µg/mL] | further results |
| --- | --- | --- | --- | --- | --- | --- | --- | --- | --- | --- | --- | --- | --- | --- | --- | --- | --- | --- | --- | --- | --- |
| C/C(=C\c1nc(C)c(-c2ccccc2)o1)C[C@@H]1OC[C@H](C[C@@H]2O[C@H]2[C@@H](C)[C@H](C)O)[C@@H](O)[C@H]1O [Example 40, 4-Methyl-2-(1-normon-2-yl)-5-phenyloxazole A] | > 10 | > 10 | > 10 | > 10 | > 10 | > 10 | > 10 | > 10 | > 10 | > 10 | > 10 | 5 (≈ 10.9 µM) | 10 (≈ 21.9 µM) | > 100 | > 100 | > 100 | 50 (≈ 109 µM) | 50 (≈ 109 µM) | > 100 | > 100 | MIC (Staph. aureus Russell): 100 µg/mL (≈ 219 µM); MIC (Staph. aureus W2827): > 100 µg/mL; MIC (Strep. faecalis I): > 100 µg/mL; MIC (Strep. agalactiae 2788-B): > 100 µg/mL; MIC (Strep. pneumoniae CN33): > 100 µg/mL; MIC (Bord. bronchiseptica B08): > 80 µg/mL; MIC (Bord. bronchiseptica B09): > 80 µg/mL; MIC (Past. multocida PA1): 80 µg/mL (≈ 175 µM); MIC (Past. multocida PA2): 80 µg/mL (≈ 175 µM); MIC (Past. haemolytica PA5): > 80 µg/mL; MIC [9]: > 80 µg/mL; MIC [10]: 80 µg/mL (≈ 175 µM); MIC [11]: 80 µg/mL (≈ 175 µM); MIC [12]: > 80 µg/mL; MIC (Strep. dysgalactiae SPD1): > 80 µg/mL |
| C/C(=C\c1nc(-c2ccccc2)c(-c2ccccc2)o1)C[C@@H]1OC[C@H](C[C@@H]2O[C@H]2[C@@H](C)[C@H](C)O)[C@@H](O)[C@H]1O [Example 41, 4,5-Diphenyl-2-(1-normon-2-yl)oxazole A] | > 10 | > 10 | > 10 | > 10 | > 10 | > 10 | > 10 | > 10 | > 10 | > 10 | > 10 | 2.5 (≈ 4.81 µM) | 5 (≈ 9.62 µM) | > 100 | > 100 | > 100 | 25 (≈ 48.1 µM) | 25 (≈ 48.1 µM) | > 100 | > 100 | MIC (Staph. aureus Russell): > 100 µg/mL; MIC (Staph. aureus W2827): > 100 µg/mL; MIC (Strep. faecalis I): > 100 µg/mL; MIC (Strep. agalactiae 2788-B): > 100 µg/mL; MIC (Strep. pneumoniae CN33): > 100 µg/mL; MIC (Bord. bronchiseptica B08): > 80 µg/mL; MIC (Bord. bronchiseptica B09): > 80 µg/mL; MIC (Past. multocida PA1): 40 µg/mL (≈ 77 µM); MIC (Past. multocida PA2): 20 µg/mL (≈ 38.5 µM); MIC (Past. haemolytica PA5): > 80 µg/mL; MIC [9]: > 80 µg/mL; MIC [10]: 40 µg/mL (≈ 77 µM); MIC [11]: 40 µg/mL (≈ 77 µM); MIC [12]: > 80 µg/mL; MIC (Strep. dysgalactiae SPD1): 20 µg/mL (≈ 38.5 µM) |

From US5041567A, “Antibacterial monic acid derivatives” (Beecham Group plc, priority 1982, dated 1991)
